# Values of other authors in patent publication US9808460B2, “Controlled release auris sensory cell modulator compositions and methods for the treatment of otic disorders” (Otonomy, Inc., priority 2008, dated 2017).
# Tested on: ototoxic effects of cisplatin
# Details: in certain instances
compound,measurement,value
NCCCNCCSP(=O)(O)O [Amifostine],doses needed to protect against or ameliorate the ototoxic effects of cisplatin,≥ 40 mg/kg
